Test results taken from patent EP0535528A1, “Antibacterial 5-Nitro-1-methyl-imidazolyl-3-terbutyl-2-hydroxy-aryl-carbinols” (EURORESEARCH S.r.L., priority 1991, dated 1993).
≈ marks a conversion by molar mass, not a printed value.

How the values were obtained:
Swiss female albino mice = test: Oral and intraperitoneal acute toxicity in mice (LD50, Probits method); assay type: in vivo; conditions: mice
Procedure: 20 Swiss female albino mice are used for this test of the average weight of 20 g (±2), coming from Nossan breeding .
Cages: in Makrolon® with saw dust litter, Number of animals per cage: 5 Acclimation period: 1 week Temperature: 22°C (± 2°C) Humidity : 60%, Diet: pellets for mice produced by Nossan firm, Water ad libitum Fast before the treatment: 16 hours
Oral by gastric route and intraperitoneal.
The substances to be studied: EU11100, EU11102, EU11103, EU11104 are treated with 0.5% carboxymethylcellulose in spring water, for the oral administration, whereas the same substances are intraperitoneally administered in the form of a physiological solution .
For each of the above mentioned substances, a mother suspension is prepared having a concentration in the active ingredient of 250 mg/ml for the oral administration, and analogously a mother suspension is prepared for the intraperitoneal administration having a concentration of the desired active principle of 100 mg/ml.
The following doses are used • a) oral route: 5000 mg/kg • b) intraperitoneal route : 2000 mg/kg
If mortality is observed at the above mentioned doses, other doses are administered in order to obtain a dose-response curve.
5 animals are used for every utilized concentration.
After the administration of the above substances the animals are kept under observation for 14 days , during which the mortality and the behaviour is observed.
LD₅₀ is determined on the base of the cumulative mortality observed in the successive 14 days after the administration by using the Probits method.

Helicobapter pylori [1] = test: Inhibition halos of the bacterial growth (impregnated disks on agar); assay type: cell-based; conditions: for activity against the Helicobapter pylori strains used: 10 strains; for Inhibition halo (mm), Average: average of 10 strains
Procedure: Comparison substance: Metronidazole Solubilization of the substances : All the substances to be studied are dissolved at room temperature in DMSO.
Some commercially available antibiogram disks are so impregnated with the above mentioned compounds that each disk has concentration equal to 10, 1, 0.1, 0.01 µg.
10 strains of Helicobapter pylori are used of recent clinical isolation.
Columbia Blood Agar Base is used, containing 5% of defibrinated horse blood, 2 % of calf serum, 2 vials of Vitox per liter of medium and Vancomicine (10 µg/ml) Trimetoprim lactate(5 µg/ml) and Polimixin B (2.5 U/ml).
0.1 ml of a suspension of the different used strains are uniformly distributed onto Petri plates, containing 20 ml of Columbia Blood Agar base, obtained by taking a sample, by means of a platinum loop, of different colonies from a 48 hours culture, grown in anaerobiosis jars with "Gas Pack", without a catalyst and diluted into a physiological solution.
4 disks per plate, previously impregnated with the substances under examination, are then placed onto the agar layer of each plate.
After 48 hours of anaerobiosis incubation, as above described, the inhibition halos of the bacterial growth, produced by the different activity of the substances inside the agar, are evaluated.

Helicobapter pylori [2] = test: Minimal inhibiting concentration (agar dilution); assay type: cell-based
Procedure: Substances under examination: EU11100, EU11102, EU11103, EU11104. Comparison substance: Metronidazole Solubilization of the substances: All the substances to be studied are dissolved at room temperature in DMSO. […] 10 strains of Helicobapter pylori are used of recent clinical isolation […] The sowing of the bacteria, prepared as described in the preceding test is carried out by means a "multi-point inoculator". After 48 hours incubation under the condition described in the preceding test, the plates are examined and the Minimal Inhibiting Concentration is evaluated, namely that dose corresponding to growth absence.

In the case of `Cn1c([N+](=O)[O-])cnc1C(O)c1cc(C(C)(C)C)cc(C(C)(C)C)c1O` (stereo not shown) [EU11102, 5-nitro-1-methyl-imidazolyl-3,5-diterbutyl-2-hydroxy-phenyl-carbinol], the “toxicity when intraperitoneally administered” value (Swiss female albino mice; intraperitoneal, 2000 mg/kg) is reported as “not toxic”, the “toxicity when orally administered” value (Swiss female albino mice; oral, 5000 mg/kg) is reported as “not toxic” and the “activity against the Helicobapter pylori strains used” value (Helicobapter pylori [1]; 1 µg/disk) is reported as “active against all the Helicobapter pylori used”. For the same compound, the “activity against the Helicobapter pylori strains used” value (Helicobapter pylori [1]; disk test) was “active against all the Helicobapter pylori strains used”, the “Inhibition halo (mm), Average” value (Helicobapter pylori [1]; 1 µg/disk) was 15.1 mm and the “Inhibition halo (mm), Average” value (Helicobapter pylori [1]; 10 µg/disk) was 22.9 mm. For the same compound, the “Inhibition halo (mm) at the concentration (µg/disk)” value (“Inhibition halo (mm) … (µg/disk)” for short) (Helicobapter pylori [1]; strain 1, 0.01 µg/disk) was 0 mm, the “Inhibition halo (mm) … (µg/disk)” value (Helicobapter pylori [1]; strain 1, 0.1 µg/disk) was 0 mm and the “Inhibition halo (mm) … (µg/disk)” value (Helicobapter pylori [1]; strain 1, 1 µg/disk) was 15 mm. For the same compound, the “Inhibition halo (mm) … (µg/disk)” value (Helicobapter pylori [1]; strain 1, 10 µg/disk) was 23 mm, the “Inhibition halo (mm) … (µg/disk)” value (Helicobapter pylori [1]; strain 2, 0.01 µg/disk) was 0 mm and the “Inhibition halo (mm) … (µg/disk)” value (Helicobapter pylori [1]; strain 2, 0.1 µg/disk) was 0 mm. The “Inhibition halo (mm) … (µg/disk)” value (Helicobapter pylori [1]; strain 2, 10 µg/disk) was 22 mm, the “Inhibition halo (mm) … (µg/disk)” value (Helicobapter pylori [1]; strain 3, 0.01 µg/disk) was 0 mm and the “Inhibition halo (mm) … (µg/disk)” value (Helicobapter pylori [1]; strain 3, 0.1 µg/disk) was 0 mm. For the same compound, the “Inhibition halo (mm) … (µg/disk)” value (Helicobapter pylori [1]; strain 3, 1 µg/disk) was 12 mm, the “Inhibition halo (mm) … (µg/disk)” value (Helicobapter pylori [1]; strain 3, 10 µg/disk) was 22 mm and the “Inhibition halo (mm) … (µg/disk)” value (Helicobapter pylori [1]; strain 4, 0.01 µg/disk) was 0 mm. For the same compound, the “Inhibition halo (mm) … (µg/disk)” value (Helicobapter pylori [1]; strain 4, 0.1 µg/disk) was 0 mm, the “Inhibition halo (mm) … (µg/disk)” value (Helicobapter pylori [1]; strain 4, 1 µg/disk) was 16 mm and the “Inhibition halo (mm) … (µg/disk)” value (Helicobapter pylori [1]; strain 4, 10 µg/disk) was 24 mm. The “Inhibition halo (mm) … (µg/disk)” value (Helicobapter pylori [1]; strain 5, 0.01 µg/disk) was 0 mm, the “Inhibition halo (mm) … (µg/disk)” value (Helicobapter pylori [1]; strain 5, 0.1 µg/disk) was 0 mm and the “Inhibition halo (mm) … (µg/disk)” value (Helicobapter pylori [1]; strain 5, 1 µg/disk) was 16 mm. The “Inhibition halo (mm) … (µg/disk)” value (Helicobapter pylori [1]; strain 5, 10 µg/disk) was 22 mm, the “Inhibition halo (mm) … (µg/disk)” value (Helicobapter pylori [1]; strain 6, 0.01 µg/disk) was 0 mm and the “Inhibition halo (mm) … (µg/disk)” value (Helicobapter pylori [1]; strain 6, 0.1 µg/disk) was 0 mm. The “Inhibition halo (mm) … (µg/disk)” value (Helicobapter pylori [1]; strain 6, 1 µg/disk) was 17 mm, the “Inhibition halo (mm) … (µg/disk)” value (Helicobapter pylori [1]; strain 6, 10 µg/disk) was 25 mm and the “Inhibition halo (mm) … (µg/disk)” value (Helicobapter pylori [1]; strain 7, 0.01 µg/disk) was 0 mm. The “Inhibition halo (mm) … (µg/disk)” value (Helicobapter pylori [1]; strain 7, 0.1 µg/disk) was 0 mm, the “Inhibition halo (mm) … (µg/disk)” value (Helicobapter pylori [1]; strain 7, 1 µg/disk) was 14 mm and the “Inhibition halo (mm) … (µg/disk)” value (Helicobapter pylori [1]; strain 7, 10 µg/disk) was 21 mm. The “Inhibition halo (mm) … (µg/disk)” value (Helicobapter pylori [1]; strain 8, 0.01 µg/disk) was 0 mm, the “Inhibition halo (mm) … (µg/disk)” value (Helicobapter pylori [1]; strain 8, 0.1 µg/disk) was 0 mm and the “Inhibition halo (mm) … (µg/disk)” value (Helicobapter pylori [1]; strain 8, 1 µg/disk) was 15 mm. The “Inhibition halo (mm) … (µg/disk)” value (Helicobapter pylori [1]; strain 8, 10 µg/disk) was 23 mm, the “Inhibition halo (mm) … (µg/disk)” value (Helicobapter pylori [1]; strain 9, 0.01 µg/disk) was 0 mm and the “Inhibition halo (mm) … (µg/disk)” value (Helicobapter pylori [1]; strain 9, 0.1 µg/disk) was 0 mm. The “Inhibition halo (mm) … (µg/disk)” value (Helicobapter pylori [1]; strain 9, 1 µg/disk) was 16 mm, the “Inhibition halo (mm) … (µg/disk)” value (Helicobapter pylori [1]; strain 9, 10 µg/disk) was 24 mm and the “Inhibition halo (mm) … (µg/disk)” value (Helicobapter pylori [1]; strain 10, 0.01 µg/disk) was 0 mm. For the same compound, the “Inhibition halo (mm) … (µg/disk)” value (Helicobapter pylori [1]; strain 10, 0.1 µg/disk) was 0 mm, the “Inhibition halo (mm) … (µg/disk)” value (Helicobapter pylori [1]; strain 10, 1 µg/disk) was 15 mm and the “Inhibition halo (mm) … (µg/disk)” value (Helicobapter pylori [1]; strain 10, 10 µg/disk) was 23 mm. For the same compound, the MIC50 (Helicobapter pylori [2]; 10 strains) was 0.25 µg/mL (≈ 0.692 µM), the MIC90 (Helicobapter pylori [2]; 10 strains) was 0.5 µg/mL (≈ 1.38 µM) and the MIC range (Helicobapter pylori [2]; 10 strains) was 0.25 to 0.5 µg/mL. It also gave an MIC (Helicobapter pylori [2]; strain 1) of 0.5 µg/mL (≈ 1.38 µM), an MIC (Helicobapter pylori [2]; strain 2) of 0.25 µg/mL (≈ 0.692 µM) and an MIC (Helicobapter pylori [2]; strain 3) of 0.25 µg/mL (≈ 0.692 µM). The MIC (Helicobapter pylori [2]; strain 4) was 0.5 µg/mL (≈ 1.38 µM), the MIC (Helicobapter pylori [2]; strain 5) was 0.25 µg/mL (≈ 0.692 µM) and the MIC (Helicobapter pylori [2]; strain 6) was 0.5 µg/mL (≈ 1.38 µM). The MIC (Helicobapter pylori [2]; strain 7) was 0.25 µg/mL (≈ 0.692 µM), the MIC (Helicobapter pylori [2]; strain 8) was 0.25 µg/mL (≈ 0.692 µM) and the MIC (Helicobapter pylori [2]; strain 9) was 0.25 µg/mL (≈ 0.692 µM). For the same compound, the MIC (Helicobapter pylori [2]; strain 10) was 0.25 µg/mL (≈ 0.692 µM).
